{"source": "ChEMBL document CHEMBL3779888", "about": "“Discovery of novel 2-phenyl-imidazo[1,2-a]pyridine analogues targeting tubulin polymerization as antiproliferative agents” (Eur J Med Chem, 2016)", "key": {"[1]": {"tested_on": "HeLa", "assay": "Cytotoxicity against human HeLa cells after 3 days by SRB assay", "type": "functional, cell-based", "conditions": "72 h"}, "[2]": {"biological_target": "Tubulin (Sus scrofa, UniProt P02554+P02550)", "assay": "Inhibition of porcine tubulin polymerization by UV-Vis microplate reader analysis", "type": "protein assay"}, "[3]": {"biological_target": "Tubulin (Sus scrofa) (UniProt P02554+P02550)", "sequence (P02550 whole entry, looked up)": "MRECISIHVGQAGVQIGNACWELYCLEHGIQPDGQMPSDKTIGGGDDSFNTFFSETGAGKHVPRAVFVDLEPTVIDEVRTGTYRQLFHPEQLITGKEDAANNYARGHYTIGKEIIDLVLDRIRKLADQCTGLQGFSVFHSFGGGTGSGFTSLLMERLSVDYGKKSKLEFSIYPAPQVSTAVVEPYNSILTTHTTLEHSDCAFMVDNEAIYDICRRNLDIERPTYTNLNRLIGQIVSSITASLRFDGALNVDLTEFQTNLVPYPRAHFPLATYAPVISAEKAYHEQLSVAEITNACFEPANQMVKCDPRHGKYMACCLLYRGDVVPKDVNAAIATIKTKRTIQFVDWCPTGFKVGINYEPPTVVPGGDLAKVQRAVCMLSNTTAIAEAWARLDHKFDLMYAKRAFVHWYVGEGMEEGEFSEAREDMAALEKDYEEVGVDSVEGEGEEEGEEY", "sequence (P02554 whole entry, looked up)": "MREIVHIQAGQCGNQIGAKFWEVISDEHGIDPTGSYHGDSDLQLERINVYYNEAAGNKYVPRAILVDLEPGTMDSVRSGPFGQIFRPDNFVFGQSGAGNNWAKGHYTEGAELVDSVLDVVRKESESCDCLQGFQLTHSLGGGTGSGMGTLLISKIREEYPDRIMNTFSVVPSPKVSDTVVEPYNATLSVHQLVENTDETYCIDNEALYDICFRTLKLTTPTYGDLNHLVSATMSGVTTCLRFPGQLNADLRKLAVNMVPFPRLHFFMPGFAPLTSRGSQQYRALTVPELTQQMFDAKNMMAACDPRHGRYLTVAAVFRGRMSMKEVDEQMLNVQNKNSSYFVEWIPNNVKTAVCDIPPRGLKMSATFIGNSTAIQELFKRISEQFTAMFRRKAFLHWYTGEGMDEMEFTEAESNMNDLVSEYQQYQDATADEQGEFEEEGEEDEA", "assay": "Displacement of [3H]-colchicine from porcine tubulin at 20 uM preincubated for 1 hr followed by radioligand addition measured after 30 mins by DE81 filter-based scintillation spectrometric assay", "type": "protein assay"}}}
{"molecule": "COc1ccc(CNc2c(-c3ccccc3O)nc3cccc(F)n23)cc1", "values": [{"measurement": "IC50", "setting": "[1]", "value": 46, "unit": "nM"}]}
{"molecule": "COc1ccc(CNc2c(-c3ccccc3NS(C)(=O)=O)nc3ccccn23)cc1", "values": [{"measurement": "IC50", "setting": "[1]", "value": "> 10000", "unit": "nM"}]}
{"molecule": "COc1ccc(CNc2c(-c3ccccc3O)nc3ccccn23)cc1", "values": [{"measurement": "IC50", "setting": "[1]", "value": 15, "unit": "nM"}, {"measurement": "IC50", "setting": "[2]", "value": 4.35, "unit": "µM"}, {"measurement": "inhibition", "setting": "[3]", "value": 66, "unit": "%"}]}
{"molecule": "COc1ccc(CNc2c(-c3ccccc3O)nc3ccc(F)cn23)cc1", "values": [{"measurement": "IC50", "setting": "[1]", "value": 13, "unit": "nM"}, {"measurement": "IC50", "setting": "[2]", "value": 3.41, "unit": "µM"}, {"measurement": "inhibition", "setting": "[3]", "value": 72.2, "unit": "%"}]}
{"molecule": "COc1ccc(CNc2c(-c3cc(Cl)cc(Cl)c3O)nc3ccccn23)cc1", "values": [{"measurement": "IC50", "setting": "[1]", "value": 4160, "unit": "nM"}]}
{"molecule": "COc1ccc(CNc2c(-c3ccccc3OC)nc3ccccn23)cc1", "values": [{"measurement": "IC50", "setting": "[1]", "value": 230, "unit": "nM"}]}
{"molecule": "COc1ccc(CNc2c(-c3ccccc3O)nc3ccc(Br)cn23)cc1", "values": [{"measurement": "IC50", "setting": "[1]", "value": 810, "unit": "nM"}]}
{"molecule": "COc1ccc(CNc2c(-c3ccccc3NC(C)=O)nc3ccccn23)cc1", "values": [{"measurement": "IC50", "setting": "[1]", "value": "> 10000", "unit": "nM"}]}
{"molecule": "COc1ccc(CNc2c(-c3c(O)cc(OC)cc3OC)nc3ccccn23)cc1", "values": [{"measurement": "IC50", "setting": "[1]", "value": "> 10000", "unit": "nM"}]}
{"molecule": "COc1ccc(CCNc2c(-c3ccccc3O)nc3ccccn23)cc1", "values": [{"measurement": "IC50", "setting": "[1]", "value": 8220, "unit": "nM"}]}
{"molecule": "COc1ccc(Nc2c(-c3ccccc3O)nc3ccccn23)cc1", "values": [{"measurement": "IC50", "setting": "[1]", "value": "> 10000", "unit": "nM"}]}
{"molecule": "COc1ccc(CNc2c(-c3cc([N+](=O)[O-])ccc3O)nc3ccccn23)cc1", "values": [{"measurement": "IC50", "setting": "[1]", "value": 210, "unit": "nM"}]}
{"molecule": "COc1ccc(CNc2c(-c3ccccc3O)nc3cnccn23)cc1", "values": [{"measurement": "IC50", "setting": "[1]", "value": 37, "unit": "nM"}, {"measurement": "IC50", "setting": "[2]", "value": 7.16, "unit": "µM"}, {"measurement": "inhibition", "setting": "[3]", "value": 41.1, "unit": "%"}]}
{"molecule": "COc1cc2c(c(OC)c1OC)-c1ccc(OC)c(=O)cc1[C@@H](NC(C)=O)CC2", "note": "[COLCHICINE]", "values": [{"measurement": "IC50", "setting": "[1]", "value": 37, "unit": "nM"}]}
